In US12648944B2, “Masitinib for the treatment of castrate-resistant prostate cancer” (AB SCIENCE, priority 2021, dated 2026):

Test system: first line metastatic castrate-resistant prostate cancer (mCRPC)
Test: Phase 3 randomized double blind placebo-controlled study of masitinib in combination with docetaxel (+ prednisone), progression-free survival
Type: in vivo, human
Details: for Median progression-free survival (PFS): masitinib 6 mg/kg/day + docetaxel + prednisone; for Hazard Ratio / Risk Benefit: masitinib vs placebo, each + docetaxel + prednisone
Method: A prospective, multicenter, randomized, double blind, placebo-controlled, 2-parallel groups, phase 3 study was conducted to assess the efficacy and safety of masitinib in combination with docetaxel as compared to placebo in combination with docetaxel in first line metastatic castrate-resistant prostate cancer (mCRPC).
The objective of the study was to assess the efficacy and safety of masitinib in combination with docetaxel as compared to docetaxel in combination with placebo in first line metastatic castrate-resistant prostate cancer (mCRPC). Efficacy was assessed based on the progression-free survival (PFS), measured in months.
The patients recruited in the study consist of adult males suffering from prostate cancer who progressed to develop castration-resistant prostate cancer (CRPC) after castration treatment (reduction of androgens (e.g., testosterone, dihydrotestosterone (DHT)) by chemical or surgical means). These patients are considered to be patients in the first line metastatic castration-resistant prostate cancer (mCRPC).
The patients recruited in the study were randomized in two groups with a ratio 1:1: • Group 1: masitinib (6 mg/kg/day)+docetaxel (75 mg/m^2 6 cycles—8 or 10 cycles possible)+prednisone according to usual practice; • Group 2: placebo+docetaxel (75 mg/m^2 6 cycles—8 or 10 cycles possible)+prednisone according to usual practice.
Docetaxel was combined with prednisone as usual practice.
Patients were centrally randomized to one of the two treatment groups by IWRS (Interactive Web Response System) according to minimization method.
Inclusion criteria were: • Patient aged≥18 years old, with histologically or cytologically confirmed metastatic castrate-resistant prostate cancer (medical or surgical castration: androgens deprivation by GnRH agonist or antagonist or patient with surgical castration; hormonal castration confirmed biologically (testosterone<0.5 ng/ml) with one of the following criteria: • If surgical castration is done than there is no requirement to perform testosterone test. • Pre-treated with abiraterone with progressed disease documented, OR • With indication for initiating docetaxel administration (e.g., widespread visceral disease or rapidly progressive disease). • Patient with evidence of progressive metastatic disease. Disease progression at trial enrolment is based on progression in at least one variable as described in the Prostate Cancer Clinical Trials Working Group (PCWG2) definition of response and progression for disease manifestations in prostate cancer (Scher et al. J Clin Oncol. 2008; 26:1148-1159):
• Patient with ECOG≤1 • Patient with adequate organ function: […]

[1] = Halabi prognosis score H > 15 at baseline
[2] = Halabi prognosis score H > 16 at baseline
[3] = Halabi prognosis score H > 17 at baseline
[4] = Halabi prognosis score H > 18 at baseline
[5] = Halabi prognosis score H > 19 at baseline
[6] = Halabi prognosis score H > 20 at baseline
[7] = Halabi prognosis score H > 21 at baseline
[8] = Halabi prognosis score H > 22 at baseline
[9] = Halabi prognosis score H > 27 at baseline
[10] = Halabi prognosis score H > 33 at baseline
[11] = Halabi prognosis score H ≤ 15 at baseline
[12] = Halabi prognosis score H ≤ 16 at baseline
[13] = Halabi prognosis score H ≤ 17 at baseline
[14] = Halabi prognosis score H ≤ 18 at baseline
[15] = Halabi prognosis score H ≤ 19 at baseline
[16] = Halabi prognosis score H ≤ 20 at baseline
[17] = Halabi prognosis score H ≤ 21 at baseline
[18] = Halabi prognosis score H ≤ 22 at baseline
[19] = Halabi prognosis score H ≤ 27 at baseline
[20] = Halabi prognosis score H ≤ 33 at baseline
[21] = baseline ALP > 250 IU/L and H > 18
[22] = baseline ALP > 250 IU/L and H > 19
[23] = baseline ALP > 250 IU/L and H > 20
[24] = baseline ALP > 250 IU/L and H > 21
[25] = baseline ALP > 250 IU/L and H > 22
[26] = baseline ALP > 250 IU/L and H ≤ 20
[27] = baseline ALP > 250 IU/L and H ≤ 21
[28] = baseline ALP > 250 IU/L and H ≤ 22
[29] = baseline ALP equal to or lower than 100 IU/L and H equal to or lower than 18
[30] = baseline ALP equal to or lower than 150 IU/L and H equal to or lower than 18
[31] = baseline ALP equal to or lower than 200 IU/L and H equal to or lower than 18
[32] = baseline ALP ≤ 250 IU/L and H < 21
[33] = baseline ALP ≤ 250 IU/L and H < 22
[34] = baseline ALP ≤ 250 IU/L and H > 18
[35] = baseline ALP ≤ 250 IU/L and H > 19
[36] = baseline ALP ≤ 250 IU/L and H > 20
[37] = baseline ALP ≤ 250 IU/L and H > 21
[38] = baseline ALP ≤ 250 IU/L and H > 22
[39] = baseline ALP ≤ 250 IU/L and H ≤ 18
[40] = baseline ALP ≤ 250 IU/L and H ≤ 19
[41] = baseline ALP ≤ 250 IU/L and H ≤ 20

Cc1ccc(NC(=O)c2ccc(CN3CCN(C)CC3)cc2)cc1Nc1nc(-c2cccnc2)cs1 [MASITINIB, 4-(4-methylpiperazin-1-ylmethyl)-N-[4-methyl-3-(4-pyridin-3ylthiazol-2-ylamino)phenyl]benzamide]
Median progression-free survival (PFS) [1]: 5.5 months
Hazard Ratio [1]: 0.99
Risk Benefit [1]: 1%
Median progression-free survival (PFS) [2]: 5.5 months
Hazard Ratio [2]: 1.00
Risk Benefit [2]: 0%
Median progression-free survival (PFS) [3]: 5.5 months
Hazard Ratio [3]: 1.00
Risk Benefit [3]: 0%
Median progression-free survival (PFS) [4]: 5.5 months
Hazard Ratio [4]: 1.00
Risk Benefit [4]: 0%
Median progression-free survival (PFS) [5]: 5.4 months
Hazard Ratio [5]: 1.00
Risk Benefit [5]: 0%
Median progression-free survival (PFS) [6]: 4.9 months
Hazard Ratio [6]: 1.04
Risk Benefit [6]: −4%
Median progression-free survival (PFS) [7]: 4.9 months
Hazard Ratio [7]: 1.07
Risk Benefit [7]: −7%
Median progression-free survival (PFS) [8]: 4.9 months
Hazard Ratio [8]: 1.09
Risk Benefit [8]: −9%
Median progression-free survival (PFS) [9]: 4.8 months
Hazard Ratio [9]: 1.20
Risk Benefit [9]: −20%
Median progression-free survival (PFS) [10]: 4.1 months
Hazard Ratio [10]: 1.34
Risk Benefit [10]: −34%
Median progression-free survival (PFS) [11]: 15 months
Hazard Ratio [11]: 0.28
Risk Benefit [11]: 72%
Median progression-free survival (PFS) [12]: 9.0 months
Hazard Ratio [12]: 0.35
Risk Benefit [12]: 65%
Median progression-free survival (PFS) [13]: 7.0 months
Hazard Ratio [13]: 0.49
Risk Benefit [13]: 51%
Median progression-free survival (PFS) [14]: 7.0 months
Hazard Ratio [14]: 0.54
Risk Benefit [14]: 46%
Median progression-free survival (PFS) [15]: 6.9 months
Hazard Ratio [15]: 0.69
Risk Benefit [15]: 31%
Median progression-free survival (PFS) [16]: 7.0 months
Hazard Ratio [16]: 0.65
Risk Benefit [16]: 36%
Median progression-free survival (PFS) [17]: 7.0 months
Hazard Ratio [17]: 0.65
Risk Benefit [17]: 35%
Median progression-free survival (PFS) [18]: 6.9 months
Hazard Ratio [18]: 0.65
Risk Benefit [18]: 35%
Median progression-free survival (PFS) [19]: 6.5 months
Hazard Ratio [19]: 0.75
Risk Benefit [19]: 25%
Median progression-free survival (PFS) [20]: 6.4 months
Hazard Ratio [20]: 0.81
Risk Benefit [20]: 19%
Median progression-free survival (PFS) (baseline ALP > 100 IU/L): 5.4 months
Hazard Ratio (baseline ALP > 100 IU/L): 1.02
Median progression-free survival (PFS) (baseline ALP > 150 IU/L): 4.9 months
Hazard Ratio (baseline ALP > 150 IU/L): 1.14
Median progression-free survival (PFS) (baseline ALP > 200 IU/L): 4.4 months
Hazard Ratio (baseline ALP > 200 IU/L): 1.17
Median progression-free survival (PFS) [21]: 4.3 months
Hazard Ratio [21]: 1.19
Median progression-free survival (PFS) [22]: 4.2 months
Hazard Ratio [22]: 1.18
Median progression-free survival (PFS) [23]: 4.2 months
Hazard Ratio [23]: 1.19
Median progression-free survival (PFS) [24]: 4.2 months
Hazard Ratio [24]: 1.19
Median progression-free survival (PFS) [25]: 4.2 months
Hazard Ratio [25]: 1.20
Median progression-free survival (PFS) (baseline ALP > 250 IU/L and H ≤ 18): 3.4 months
Median progression-free survival (PFS) (baseline ALP > 250 IU/L and H ≤ 19): 9.2 months
Median progression-free survival (PFS) [26]: 13 months
Hazard Ratio [26]: 1.78
Median progression-free survival (PFS) [27]: 8.3 months
Hazard Ratio [27]: 0.99
Median progression-free survival (PFS) [28]: 8.3 months
Hazard Ratio [28]: 0.88
Median progression-free survival (PFS) (baseline ALP > 250 IU/L): 4.2 months
Hazard Ratio (baseline ALP > 250 IU/L): 1.20
Hazard Ratio [29]: 0.46
Risk Benefit [29]: 56%
Hazard Ratio [30]: 0.46
Risk Benefit [30]: 55%
Hazard Ratio [31]: about 0.5
Risk Benefit [31]: about 50%
Median progression-free survival (PFS) (baseline ALP ≤ 100 IU/L): 9.0 months
Hazard Ratio (baseline ALP ≤ 100 IU/L): 0.53
Risk Benefit (baseline ALP ≤ 100 IU/L): 47%
Risk Benefit (baseline ALP ≤ 100 IU/L, listed as masitinib): 47%
Median progression-free survival (PFS) (baseline ALP ≤ 150 IU/L): 6.9 months
Hazard Ratio (baseline ALP ≤ 150 IU/L): 0.63
Risk Benefit (baseline ALP ≤ 150 IU/L): 37%
Median progression-free survival (PFS) (baseline ALP ≤ 200 IU/L): 6.9 months
Hazard Ratio (baseline ALP ≤ 200 IU/L): 0.73
Risk Benefit (baseline ALP ≤ 200 IU/L): 27%
Median progression-free survival (PFS) [32]: 7.0 months
Hazard Ratio [32]: 0.62
Risk Benefit [32]: 38%
Median progression-free survival (PFS) [33]: 6.9 months
Hazard Ratio [33]: 0.63
Risk Benefit [33]: 37%
Median progression-free survival (PFS) [34]: 6.2 months
Hazard Ratio [34]: 0.87
Median progression-free survival (PFS) [35]: 6.1 months
Hazard Ratio [35]: 0.86
Median progression-free survival (PFS) [36]: 5.8 months
Hazard Ratio [36]: 0.90
Median progression-free survival (PFS) [37]: 5.8 months
Hazard Ratio [37]: 0.94
Median progression-free survival (PFS) [38]: 5.8 months
Hazard Ratio [38]: 0.97
Median progression-free survival (PFS) [39]: 7.7 months
Hazard Ratio [39]: 0.52
Risk Benefit [39]: 48%
Median progression-free survival (PFS) [40]: 6.9 months
Hazard Ratio [40]: 0.66
Risk Benefit [40]: 34%
Median progression-free survival (PFS) [41]: 7.0 months
Hazard Ratio [41]: 0.62
Risk Benefit [41]: 38%
Median progression-free survival (PFS) (baseline ALP ≤ 250 IU/L): 6.3 months
Hazard Ratio (baseline ALP ≤ 250 IU/L): 0.79
Risk Benefit (baseline ALP ≤ 250 IU/L): 21%
